Here are results for two compounds from article PMC3030585, “Functional Magnetic Resonance Imaging Reveals Different Neural Substrates for the Effects of Orexin-1 and Orexin-2 Receptor Antagonists” (PLoS ONE, 2011).

For one assay, the target named is T1, orexin-2 receptor (OX2R) (Rattus norvegicus, UniProt P56719).
T1 construct: gene Hcrtr2
T1 sequence (P56719 1-460): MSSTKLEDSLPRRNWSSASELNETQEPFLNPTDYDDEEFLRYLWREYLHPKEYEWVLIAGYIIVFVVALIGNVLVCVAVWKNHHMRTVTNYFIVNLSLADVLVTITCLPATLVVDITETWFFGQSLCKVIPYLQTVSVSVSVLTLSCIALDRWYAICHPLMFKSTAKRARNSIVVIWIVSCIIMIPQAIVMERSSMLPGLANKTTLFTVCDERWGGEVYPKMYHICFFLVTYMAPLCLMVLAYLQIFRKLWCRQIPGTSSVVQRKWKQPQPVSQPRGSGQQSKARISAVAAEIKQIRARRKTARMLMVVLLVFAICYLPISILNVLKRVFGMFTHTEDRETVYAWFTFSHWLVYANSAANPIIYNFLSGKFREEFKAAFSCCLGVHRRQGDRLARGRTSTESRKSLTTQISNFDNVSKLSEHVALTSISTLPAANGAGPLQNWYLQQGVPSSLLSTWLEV
The experiment in a line: antagonism of Orexin-A-induced [3H]inositol phosphates accumulation in RBL cells stably expressing rat OX2R (Schild analysis). The assay is classed as cell-based.

For the next assay, the target named is T2, orexin-1 receptor (OX1R) (Rattus norvegicus, UniProt P56718).
T2 construct: gene Hcrtr1
T2 sequence (P56718 1-416): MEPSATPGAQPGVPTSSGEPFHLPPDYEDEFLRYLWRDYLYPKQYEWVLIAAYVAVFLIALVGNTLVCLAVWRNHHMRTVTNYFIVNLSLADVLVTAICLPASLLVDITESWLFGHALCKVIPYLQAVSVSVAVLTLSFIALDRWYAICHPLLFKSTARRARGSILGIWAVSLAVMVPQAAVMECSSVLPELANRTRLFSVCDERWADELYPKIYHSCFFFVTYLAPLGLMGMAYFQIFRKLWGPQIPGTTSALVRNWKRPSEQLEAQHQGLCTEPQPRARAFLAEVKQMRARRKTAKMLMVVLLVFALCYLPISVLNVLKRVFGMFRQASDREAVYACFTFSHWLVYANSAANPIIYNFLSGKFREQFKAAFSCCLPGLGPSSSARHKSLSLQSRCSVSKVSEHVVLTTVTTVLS
Description: antagonism of Orexin-A-induced [3H]inositol phosphates accumulation in RBL cells stably expressing rat OX1R. It is filed as cell-based.

The target of the next assay is T3, κ-opioid (KOP) receptor (Homo sapiens, UniProt P41145).
T3 construct: gene OPRK1
T3 sequence (P41145 whole entry): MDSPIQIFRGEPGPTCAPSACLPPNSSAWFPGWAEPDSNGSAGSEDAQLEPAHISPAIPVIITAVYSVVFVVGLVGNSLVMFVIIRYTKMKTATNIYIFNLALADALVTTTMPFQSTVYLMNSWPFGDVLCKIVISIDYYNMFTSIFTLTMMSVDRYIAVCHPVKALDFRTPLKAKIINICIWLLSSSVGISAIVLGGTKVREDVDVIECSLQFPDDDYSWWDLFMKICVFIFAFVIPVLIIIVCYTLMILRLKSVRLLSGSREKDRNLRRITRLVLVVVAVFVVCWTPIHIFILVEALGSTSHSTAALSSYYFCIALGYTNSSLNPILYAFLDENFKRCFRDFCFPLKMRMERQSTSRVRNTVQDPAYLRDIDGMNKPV
Description: CEREP/Bioprint binding assay panel (human isoforms).

For `CC1(C)OC[C@H](NC(=O)Nc2ccc(Br)cc2Br)[C@H](c2ccccc2)O1` [JNJ10397049], the Kb (usually the affinity of an antagonist, worked out from how it opposes an agonist) at orexin-2 receptor (OX2R) was 3.16 nM; on orexin-1 receptor (OX1R), 1260 nM.
For the compound `COc1c(F)cccc1C(=O)N1C[C@@H](C)CC[C@H]1CNc1ccc(Br)cn1` [GSK1059865, 5-bromo-N-[(2S,5S)-1-(3-fluoro-2-methoxybenzoyl)-5-methylpiperidin-2-yl]methyl-pyridin-2-amine], the Kb on orexin-2 receptor (OX2R) is 126 nM; at orexin-1 receptor (OX1R), 1.58 nM. On κ-opioid (KOP) receptor, the Ki (commonly a measure of affinity in units of concentration, obtained from inhibition or displacement) is 316 nM.
